Experiments:
[1] = molecular target: amyloid beta polymer (Homo sapiens, UniProt P05067); test: Amyloid beta polymer targeting ability, MRI phantom experiment (9.4T); type: binding; details: incubated with amyloid beta polymer 37° C. 24 hours, washed, 9.4T MR
Protocol: (1) 221.5 uL of HFIP was added to 1 mg of amyloid beta at a concentration of 1 mM, followed by shaking for 1 hour at room temperature using a shaker to remove preaggregation. (2) The amyloid beta from which the preaggregation was removed was dried, and 221.5 uL of DMSO was added thereto to achieve a 1 mM concentration. Using a mixer and sonicator, a suspension thereof was prepared, and 878.5 uL of PBS (1×, pH 7.4) was added thereto to achieve a 0.2 mM concentration. (3) After incubating the suspension at 37° C. for 4 days using a shaker, the polymerized amyloid beta polymer was dispensed by 200 μL. Then, 20 μL of a solution in which each of Gd-DO3A-Pca and the commercial contrast agent (Gadovist®) was dissolved in PBS at 2 mM concentration was added thereto. The incubation was carried out thereon at 37° C. for 24 hours using a shaker. (4) After 24 hours has elapsed, centrifugation was performed thereon to remove the supernatant therefrom. The amyloid beta polymer was washed using PBS. 200 μL of a solution of PBS:DMSO=9:1 was added to a pellet to prepare an MRI phantom sample. As a control, a phantom sample obtained by incubating only the amyloid beta polymer was used. […]

[2] = Measurement of relaxivity (r1, r2) in 3T MRI phantom; type: physicochemical; details: tertiary distilled water, 0.0625-1 mM, linear regression, in mM-1 s-1 (unit assumed)
Protocol: The relaxivity (r1, r2) of each of synthesized Gd-DO3A-Pca, and cyclic commercial contrast agents Gadovist® and Dotarem® as comparison groups material was measured. Specifically, a phantom was prepared by diluting the gadolinium complex in tertiary distilled water to five concentrations (0.0625, 0.125, 0.25, 0.5, 1 mM), and then T1 and T2 relaxation times were measured in 3T MRI. Thus, R (Relaxation rate=1/T) of each concentration was calculated and the relaxivity (r1, r2) result of the gadolinium complex was obtained through linear regression analysis (see FIG. 3) and shown in a following Table 1.

Sequence of amyloid beta polymer (P05067 672-713 limits assumed): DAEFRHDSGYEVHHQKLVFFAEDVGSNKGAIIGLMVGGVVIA

relaxivity r1 [2] | relaxivity r2 [2] | SMILES | contrast enhancement / signal intensity of phantom vs phantom of only amyloid beta polymer [1]
3.9 ± 0.1 | 4.8 ± 0.1 | O=C([O-])CN1CCN(CC(=O)[O-])CCN([C@H](CO)[C@H](O)CO)CCN(CC(=O)[O-])CC1.[Gd+3] (racemic) [Gadovist ®] | little difference in contrast enhancement effect
3.4 ± 0.1 | 3.9 ± 0.2 | CNC[C@H](O)[C@@H](O)[C@H](O)[C@H](O)CO.O=C([O-])CN1CCN(CC(=O)[O-])CCN(CC(=O)O)CCN(CC(=O)[O-])CC1.[Gd+3] [Dotarem ®] | 

From patent publication US20240399000A1, “GADOLINIUM-BASED COMPOUND AND MRI CONTRAST AGENT COMPRISING SAME” (KYUNGPOOK NATIONAL UNIVERSITY INDUSTRY-ACADEMIC COOPERATION …, priority 2021, published 2024)
